For two molecules, Ki and Kd results are on record in paper PMC3141093 (2011).

Assay [1] concerns the target anti-METH monoclonal antibody (mAb) generated from mice immunized with (+)-METH HSMO9 BSA MCV. Nature of the assay: mAb affinity. The class given is binding, Mus musculus.
For assay [2] the target is unchanged. Put plainly: mAb affinity. The class given is binding, Mus musculus. This is another data set of the same source.

`CN[C@@H](C)Cc1ccc2c(c1)OCO2` [(+)-MDMA]: affinity in assay [1] was put at a Ki of 1.1 nM. `CN[C@@H](C)Cc1ccccc1` [(+)-METH] came in with a Kd in assay [2] of 6.8 nM.
